One assay deals with T1, EGFR (L858R T790M C797S) (Homo sapiens, UniProt P00533, C797S/L858R/T790M).
T1 construct: purchased SignalChem E10-122VG
In words: Biochemical EGFR inhibition assay (Caliper mobility shift), EGFR LRTMCS. The gist of the method:
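Caliper mobility shift read-out: product and substrate peptides separated by electrophoresis and quantified. Reactions at 25° C. taken to 10–20% peptide phosphorylation, quenched with 35 mM EDTA. Apparent IC50 from percent activity vs log [compound].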

The target in assay [1] is T2, intracellular phosphorylation of EGFR in NCI-H1975 cell line that harbors the EGFR L858R T790M mutations (Homo sapiens, UniProt P00533, L858R/T790M).
T2 construct: NCI-H1975 cell line that harbors the EGFR L858R T790M mutations (ATCC, CRL-5908); host or cells: NCI-H1975
T2 sequence (P00533 25-1210 T790M/L858R): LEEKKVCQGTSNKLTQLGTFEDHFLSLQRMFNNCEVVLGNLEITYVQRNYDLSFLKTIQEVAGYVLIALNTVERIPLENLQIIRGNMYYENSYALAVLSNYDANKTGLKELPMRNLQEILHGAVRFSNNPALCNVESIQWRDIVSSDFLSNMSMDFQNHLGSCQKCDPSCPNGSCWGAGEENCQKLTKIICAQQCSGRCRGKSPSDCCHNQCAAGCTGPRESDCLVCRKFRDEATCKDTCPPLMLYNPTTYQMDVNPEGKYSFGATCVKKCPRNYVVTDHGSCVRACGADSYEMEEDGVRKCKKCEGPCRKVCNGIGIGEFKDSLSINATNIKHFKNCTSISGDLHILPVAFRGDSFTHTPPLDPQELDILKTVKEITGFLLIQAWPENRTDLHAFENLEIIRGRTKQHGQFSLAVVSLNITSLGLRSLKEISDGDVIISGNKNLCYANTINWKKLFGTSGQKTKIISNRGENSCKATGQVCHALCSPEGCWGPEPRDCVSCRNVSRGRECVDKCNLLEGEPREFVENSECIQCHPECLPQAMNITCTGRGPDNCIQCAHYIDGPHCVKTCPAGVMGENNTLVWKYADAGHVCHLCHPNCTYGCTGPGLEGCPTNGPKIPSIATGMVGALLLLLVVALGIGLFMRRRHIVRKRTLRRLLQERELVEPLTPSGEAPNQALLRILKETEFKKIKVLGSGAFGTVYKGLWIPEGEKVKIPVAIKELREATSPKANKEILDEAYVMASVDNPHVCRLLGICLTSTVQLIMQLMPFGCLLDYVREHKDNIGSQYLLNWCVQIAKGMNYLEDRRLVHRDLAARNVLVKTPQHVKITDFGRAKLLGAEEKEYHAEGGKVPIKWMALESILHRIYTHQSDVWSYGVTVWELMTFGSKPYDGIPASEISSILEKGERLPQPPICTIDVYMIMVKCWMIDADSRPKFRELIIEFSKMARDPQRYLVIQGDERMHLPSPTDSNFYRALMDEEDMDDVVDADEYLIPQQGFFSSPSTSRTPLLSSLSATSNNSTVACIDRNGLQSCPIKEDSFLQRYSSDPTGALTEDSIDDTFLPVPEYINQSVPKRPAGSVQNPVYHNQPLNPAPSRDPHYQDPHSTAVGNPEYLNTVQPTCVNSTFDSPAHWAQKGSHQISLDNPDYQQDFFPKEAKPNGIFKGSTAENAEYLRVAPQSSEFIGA
The experiment in a line: NCI-H1975 pEGFR AlphaLISA assay. The format is cell-based. The following applies: NCI-H1975 cells (EGFR L858R T790M), p-EGFR (Tyr1068), 4-5 hours incubation; read-out: Ext pEGFR H1975 GMean IC50 (nM) Protocol: @Pharmaron AlphaLISA (Num). Here is the method: On the next day, the test compounds and DMSO control were added into H1975 cell plate followed by incubation at 37C/5% CO2 for 4-5 hours. […] Then 5 μL of a donor bead mix was added to each well followed by overnight incubation at room temperature in dark. On the next day, the plate was read at a compatible plate reader to obtain pEGFR signal. Percent of pEGFR inhibition was plotted against log concentration of compounds to generate IC50 values.
(In general: In Alpha technology, singlet oxygen from a donor bead excites a nearby acceptor bead.)

Where [2] appears, read: LRTMCS (PH) IC50 (nM) @ 1 mM ATP (Num), EGFR LRTMCS mutant.

Where two headings read alike, the source gives them in different places. Bounds are passed on as bounds.

T1 sequence (P00533 25-1210 T790M/C797S/L858R): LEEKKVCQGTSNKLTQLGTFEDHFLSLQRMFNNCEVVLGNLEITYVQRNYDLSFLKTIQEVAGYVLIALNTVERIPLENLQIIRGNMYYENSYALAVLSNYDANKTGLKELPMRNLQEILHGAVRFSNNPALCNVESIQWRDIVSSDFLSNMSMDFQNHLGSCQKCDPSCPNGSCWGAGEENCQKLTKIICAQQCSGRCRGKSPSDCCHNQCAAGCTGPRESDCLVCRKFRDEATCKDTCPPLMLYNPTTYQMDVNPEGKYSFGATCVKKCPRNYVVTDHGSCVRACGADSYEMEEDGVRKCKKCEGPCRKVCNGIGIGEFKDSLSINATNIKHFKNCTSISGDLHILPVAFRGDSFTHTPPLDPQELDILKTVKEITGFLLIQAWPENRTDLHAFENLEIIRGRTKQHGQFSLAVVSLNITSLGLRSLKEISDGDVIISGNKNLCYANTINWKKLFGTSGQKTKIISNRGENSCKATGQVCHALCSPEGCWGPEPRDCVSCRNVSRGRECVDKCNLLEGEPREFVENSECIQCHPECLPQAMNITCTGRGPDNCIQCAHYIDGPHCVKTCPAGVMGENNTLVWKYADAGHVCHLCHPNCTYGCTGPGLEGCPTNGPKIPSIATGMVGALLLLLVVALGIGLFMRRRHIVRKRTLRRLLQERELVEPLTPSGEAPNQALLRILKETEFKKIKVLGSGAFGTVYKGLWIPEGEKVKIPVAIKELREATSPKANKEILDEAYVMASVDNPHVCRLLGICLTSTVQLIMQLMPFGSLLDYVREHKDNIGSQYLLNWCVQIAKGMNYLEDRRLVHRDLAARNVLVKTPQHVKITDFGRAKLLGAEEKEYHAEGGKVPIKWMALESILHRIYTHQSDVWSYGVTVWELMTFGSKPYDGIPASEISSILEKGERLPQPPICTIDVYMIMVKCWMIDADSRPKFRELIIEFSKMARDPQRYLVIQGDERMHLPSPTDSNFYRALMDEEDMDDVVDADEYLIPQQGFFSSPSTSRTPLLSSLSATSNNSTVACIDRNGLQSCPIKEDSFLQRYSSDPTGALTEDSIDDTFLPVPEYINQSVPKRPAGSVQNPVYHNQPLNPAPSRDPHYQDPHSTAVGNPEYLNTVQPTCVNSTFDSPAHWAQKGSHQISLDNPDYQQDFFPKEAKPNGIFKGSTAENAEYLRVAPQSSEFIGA

For orientation: IC50 means the concentration that gives 50% inhibition. On to `CC(C)c1cnc(N2CCC23CN(C)C3)c2cnc(Nc3ccnc(N4CC[C@@]5(CCO5)C(F)(F)C4)n3)cc12` (single isomer, unassigned) [Example 194, (R)—N-(2-(5,5-difluoro-1-oxa-7-azaspiro[3.5]nonan-7-yl)pyrimidin-4-yl)-5-isopropyl-8-(6-methyl-1,6-diazaspiro[3.3]heptan-1-yl)-2,7-naphthyridin-3-amine or (S)—N-(2-(5,5-difluoro-1-oxa-7-azaspiro[3.5]nonan-7-yl)pyrimidin-4-yl)-5-isopropyl-8-(6-methyl-1,6-diazaspiro[3.3]heptan-1-yl)-2,7-naphthyridin-3-amine], for which the IC50 was below 15 nM at EGFR (L858R T790M C797S) (setting [2]) and above 50 nM in assay [1].
Take `CC(C)c1cnc(N2CC[C@]23CCN(C)C3)c2cnc(Nc3ccnc(N4CC[C@@H](O)[C@@](C)(F)C4)n3)cc12` (single isomer, unassigned) [Example 198, (3S,4R)-3-fluoro-1-(4-((5-isopropyl-8-((S)-6-methyl-1,6-diazaspiro[3.4]octan-1-yl)-2,7-naphthyridin-3-yl)amino)pyrimidin-2-yl)-3-methylpiperidin-4-ol or (3S,4R)-3-fluoro-1-(4-((5-isopropyl-8-((R)-6-methyl-1,6-diazaspiro[3.4]octan-1-yl)-2,7-naphthyridin-3-yl)amino)pyrimidin-2-yl)-3-methylpiperidin-4-ol]: the values for the IC50 (at EGFR (L858R T790M C797S) (setting [2]); in assay [1]) were 15 to 20 nM and 30 to 50 nM, respectively.
With `CC(C)c1cnc(N2CC[C@@]23CCN(C)C3)c2cnc(Nc3ccnc(N4CC[C@@H](O)[C@@](C)(F)C4)n3)cc12` (single isomer, unassigned) [Example 199, (3S,4R)-3-fluoro-1-(4-((5-isopropyl-8-((R)-6-methyl-1,6-diazaspiro[3.4]octan-1-yl)-2,7-naphthyridin-3-yl)amino)pyrimidin-2-yl)-3-methylpiperidin-4-ol or (3S,4R)-3-fluoro-1-(4-((5-isopropyl-8-((S)-6-methyl-1,6-diazaspiro[3.4]octan-1-yl)-2,7-naphthyridin-3-yl)amino)pyrimidin-2-yl)-3-methylpiperidin-4-ol], the 50% inhibitory concentration (IC50) was below 15 nM at EGFR (L858R T790M C797S) (setting [2]) and 20 to 30 nM in assay [1].
Taken in the same sequence, the figures for `CC(C)c1cnc(N2CC[C@H]2C(F)F)c2cnc(Nc3ccnc(N4CC[C@@H](O)[C@@](C)(F)C4)n3)cc12` (single isomer, unassigned) [Example 204, (3S,4R)-1-(4-((8-((S)-2-(difluoromethyl)azetidin-1-yl)-5-isopropyl-2,7-naphthyridin-3-yl)amino)pyrimidin-2-yl)-3-fluoro-3-methylpiperidin-4-ol or (3S,4R)-1-(4-((8-((R)-2-(difluoromethyl)azetidin-1-yl)-5-isopropyl-2,7-naphthyridin-3-yl)amino)pyrimidin-2-yl)-3-fluoro-3-methylpiperidin-4-ol] were below 15 nM and 10 to 20 nM.
The matching figures for `CC(C)c1nnc(N2CC[C@H]2C(F)F)c2cnc(Nc3ccnc(N4CC[C@@H](O)[C@@](C)(F)C4)n3)cc12` (single isomer, unassigned) [Example 205, (3S,4R)-1-(4-((4-((S)-2-(difluoromethyl)azetidin-1-yl)-1-isopropylpyrido[3,4-d]pyridazin-7-yl)amino)pyrimidin-2-yl)-3-fluoro-3-methylpiperidin-4-ol or (3S,4R)-1-(4-((4-((R)-2-(difluoromethyl)azetidin-1-yl)-1-isopropylpyrido[3,4-d]pyridazin-7-yl)amino)pyrimidin-2-yl)-3-fluoro-3-methylpiperidin-4-ol]: 30 to 100 nM and above 50 nM.
With `CC(C)c1nnc(N2CC[C@@H]2C)c2cnc(Nc3ccnc(N4CC[C@@H](O)[C@@](C)(F)C4)n3)cc12` (single isomer, unassigned) [Example 206, (3S,4R)-3-fluoro-1-(4-((1-isopropyl-4-((S)-2-methylazetidin-1-yl)pyrido[3,4-d]pyridazin-7-yl)amino)pyrimidin-2-yl)-3-methylpiperidin-4-ol or (3S,4R)-3-fluoro-1-(4-((1-isopropyl-4-((S)-2-methylazetidin-1-yl)pyrido[3,4-d]pyridazin-7-yl)amino)pyrimidin-2-yl)-3-methylpiperidin-4-ol], the results for the IC50 (at EGFR (L858R T790M C797S) (setting [2]); in assay [1]) were below 15 nM and 20 to 30 nM, respectively.
Taken in the same sequence, the figures for `CC(C)c1cnc(N2CC[C@@H](CS(C)(=O)=O)C2)c2cnc(Nc3ccnc(N4CC[C@@H](O)[C@@](C)(F)C4)n3)cc12` (single isomer, unassigned) [Example 207, (3S,4R)-3-fluoro-1-(4-((5-isopropyl-8-((R)-3-((methylsulfonyl)methyl)pyrrolidin-1-yl)-2,7-naphthyridin-3-yl)amino)pyrimidin-2-yl)-3-methylpiperidin-4-ol or (3S,4R)-3-fluoro-1-(4-((5-isopropyl-8-((S)-3-((methylsulfonyl)methyl)pyrrolidin-1-yl)-2,7-naphthyridin-3-yl)amino)pyrimidin-2-yl)-3-methylpiperidin-4-ol] were below 15 nM and 20 to 30 nM.
Turning to `CC(C)c1cnc(N2CC[C@@H](CS(C)(=O)=O)C2)c2cnc(Nc3ccnc(N4CC[C@@H](O)[C@@](C)(F)C4)n3)cc12` (single isomer, unassigned) [Example 208, (3S,4R)-3-fluoro-1-(4-((5-isopropyl-8-((R)-3-((methylsulfonyl)methyl)pyrrolidin-1-yl)-2,7-naphthyridin-3-yl)amino)pyrimidin-2-yl)-3-methylpiperidin-4-ol or (3S,4R)-3-fluoro-1-(4-((5-isopropyl-8-((S)-3-((methylsulfonyl)methyl)pyrrolidin-1-yl)-2,7-naphthyridin-3-yl)amino)pyrimidin-2-yl)-3-methylpiperidin-4-ol], the 50% inhibitory concentration (IC50) on EGFR (L858R T790M C797S) (read-out: LRTMCS (PH) IC50 (nM) @ 1 mM ATP (Num), EGFR LRTMCS mutant) was below 15 nM; in assay [1] it was 10 to 20 nM.
Turning to `C[C@@H]1[C@H](F)CN1c1ncc([C@@H](C)CO)c2cc(Nc3ccnc(N4CC[C@@H](O)[C@@](C)(F)C4)n3)ncc12` (single isomer, unassigned) [Example 209, (3S,4R)-3-fluoro-1-(4-((8-((2R,3R)-3-fluoro-2-methylazetidin-1-yl)-5-((R)-1-hydroxypropan-2-yl)-2,7-naphthyridin-3-yl)amino)pyrimidin-2-yl)-3-methylpiperidin-4-ol or (3S,4R)-3-fluoro-1-(4-((8-((2R,3R)-3-fluoro-2-methylazetidin-1-yl)-5-((S)-1-hydroxypropan-2-yl)-2,7-naphthyridin-3-yl)amino)pyrimidin-2-yl)-3-methylpiperidin-4-ol], the IC50 at EGFR (L858R T790M C797S) (setting [2]) is 15 to 20 nM; in assay [1], above 50 nM.
The matching figures for `C[C@@H]1[C@H](F)CN1c1ncc([C@@H](C)CO)c2cc(Nc3ccnc(N4CC[C@@H](O)[C@@](C)(F)C4)n3)ncc12` (single isomer, unassigned) [Example 210, (3S,4R)-3-fluoro-1-(4-((8-((2R,3R)-3-fluoro-2-methylazetidin-1-yl)-5-((R)-1-hydroxypropan-2-yl)-2,7-naphthyridin-3-yl)amino)pyrimidin-2-yl)-3-methylpiperidin-4-ol or (3S,4R)-3-fluoro-1-(4-((8-((2R,3R)-3-fluoro-2-methylazetidin-1-yl)-5-((S)-1-hydroxypropan-2-yl)-2,7-naphthyridin-3-yl)amino)pyrimidin-2-yl)-3-methylpiperidin-4-ol]: below 15 nM and 10 to 20 nM.
The matching figures for `CO[C@H]1CN(c2ncc([C@@H](C)CO)c3cc(Nc4ccnc(N5CC[C@@H](O)[C@@](C)(F)C5)n4)ncc23)[C@@H]1C` (single isomer, unassigned) [Example 211, (3S,4R)-3-fluoro-1-(4-((5-((R)-1-hydroxypropan-2-yl)-8-((2R,3S)-3-methoxy-2-methylazetidin-1-yl)-2,7-naphthyridin-3-yl)amino)pyrimidin-2-yl)-3-methylpiperidin-4-ol or (3S,4R)-3-fluoro-1-(4-((5-((S)-1-hydroxypropan-2-yl)-8-((2R,3S)-3-methoxy-2-methylazetidin-1-yl)-2,7-naphthyridin-3-yl)amino)pyrimidin-2-yl)-3-methylpiperidin-4-ol]: 30 to 100 nM and above 50 nM.
The matching figures for `CO[C@H]1CN(c2ncc([C@@H](C)CO)c3cc(Nc4ccnc(N5CC[C@@H](O)[C@@](C)(F)C5)n4)ncc23)[C@@H]1C` (single isomer, unassigned) [Example 212, (3S,4R)-3-fluoro-1-(4-((5-((R)-1-hydroxypropan-2-yl)-8-((2R,3S)-3-methoxy-2-methylazetidin-1-yl)-2,7-naphthyridin-3-yl)amino)pyrimidin-2-yl)-3-methylpiperidin-4-ol or (3S,4R)-3-fluoro-1-(4-((5-((S)-1-hydroxypropan-2-yl)-8-((2R,3S)-3-methoxy-2-methylazetidin-1-yl)-2,7-naphthyridin-3-yl)amino)pyrimidin-2-yl)-3-methylpiperidin-4-ol]: below 15 nM and 10 to 20 nM.

(Values after patent US20240382483A1, “HETEROCYCLIC EGFR INHIBITORS FOR USE IN THE TREATMENT OF CANCER” (Blueprint Medicines Corporation, priority 2021, published 2024).)
